Measured values published in ChEMBL document CHEMBL5360658, “Discovery of MK-8768, a Potent and Selective mGluR2 Negative Allosteric Modulator” (ACS Med Chem Lett, 2023).
Converted amounts (≈) assume the structure as drawn.

How the values were obtained:
[1] = biological target: Voltage-gated inwardly rectifying potassium channel KCNH2 (Homo sapiens, UniProt Q12809); test: Displacement of [35S]-MK-499 from hERG expressed in HEK293 cells […]; type: toxicity, cell-based
[2] = biological target: T1, PXR (NR1I2) (Homo sapiens, UniProt O75469); test: Agonist activity at PXR (unknown origin) assessed as maximal efficacy at 30 uM
T1 sequence (O75469 whole entry): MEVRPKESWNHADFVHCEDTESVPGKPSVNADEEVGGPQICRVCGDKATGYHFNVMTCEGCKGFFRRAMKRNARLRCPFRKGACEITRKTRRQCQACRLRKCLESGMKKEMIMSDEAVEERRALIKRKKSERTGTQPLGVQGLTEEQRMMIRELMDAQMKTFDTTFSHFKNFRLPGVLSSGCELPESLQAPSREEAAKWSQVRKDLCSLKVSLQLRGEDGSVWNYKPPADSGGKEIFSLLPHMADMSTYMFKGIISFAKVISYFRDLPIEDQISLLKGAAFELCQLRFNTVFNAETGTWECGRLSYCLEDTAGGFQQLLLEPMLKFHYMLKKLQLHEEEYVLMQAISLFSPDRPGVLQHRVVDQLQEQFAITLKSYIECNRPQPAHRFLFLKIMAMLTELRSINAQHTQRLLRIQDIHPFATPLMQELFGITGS

[3] = Solubility of the compound at pH 7; type: physicochemical; details: buffer
[4] = biological target: T2, Nuclear receptor subfamily 1 group I member 2 (Homo sapiens, UniProt O75469); test: Agonist activity at PXR (unknown origin)
T2 sequence (O75469 whole entry): T1 sequence (O75469 whole entry)

[5] = Apparent permeability in […] LLC-MDR1 cell; type: ADME, cell-based; details: LLC-PK1
[6] = biological target: Metabotropic glutamate receptor 2 (Homo sapiens, UniProt Q14416); test: Negative allosteric modulation at human mGluR2 receptor stably expressed in DHFR null CHO cells co-expressing Galpha16 assessed as effect on intracellular calcium flux measured after 5 min by Fluo-4AM dye based FLIPR analysis; type: functional, cell-based
Chain of Metabotropic glutamate receptor 2 (Q14416 whole entry): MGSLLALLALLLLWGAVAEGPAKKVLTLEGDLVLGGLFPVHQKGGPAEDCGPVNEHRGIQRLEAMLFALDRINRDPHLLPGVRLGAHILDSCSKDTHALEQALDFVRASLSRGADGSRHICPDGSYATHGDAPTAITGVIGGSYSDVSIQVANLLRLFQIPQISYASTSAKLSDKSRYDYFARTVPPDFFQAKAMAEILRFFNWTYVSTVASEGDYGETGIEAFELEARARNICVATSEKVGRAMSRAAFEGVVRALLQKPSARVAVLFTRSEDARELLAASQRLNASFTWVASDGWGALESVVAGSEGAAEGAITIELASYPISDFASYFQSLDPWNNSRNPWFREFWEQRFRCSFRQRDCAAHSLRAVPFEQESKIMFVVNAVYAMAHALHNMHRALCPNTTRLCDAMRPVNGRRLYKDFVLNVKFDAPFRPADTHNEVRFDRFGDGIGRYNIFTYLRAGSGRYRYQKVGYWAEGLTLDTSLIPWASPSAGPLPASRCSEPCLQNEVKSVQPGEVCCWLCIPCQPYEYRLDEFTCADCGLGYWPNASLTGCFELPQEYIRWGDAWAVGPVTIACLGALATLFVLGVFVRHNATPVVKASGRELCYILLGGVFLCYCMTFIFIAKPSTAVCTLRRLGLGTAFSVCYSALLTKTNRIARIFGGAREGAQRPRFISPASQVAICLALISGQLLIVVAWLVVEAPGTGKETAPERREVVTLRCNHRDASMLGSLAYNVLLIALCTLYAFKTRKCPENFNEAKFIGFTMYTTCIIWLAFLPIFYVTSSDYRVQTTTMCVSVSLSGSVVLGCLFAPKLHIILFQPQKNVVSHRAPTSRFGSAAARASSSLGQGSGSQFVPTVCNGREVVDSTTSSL

[7] = biological target: P-gp (ABCB1) (Rattus norvegicus, UniProt P43245); test: Substrate activity at rat P-gp […] in […] LLC-MDR1 cells assessed as efflux ratio of apparent permeability across basolateral to apical over apical to basolateral side; type: ADME, cell-based, LLC-MDR1 cell; details: LLC-PK1
Chain of P-gp (ABCB1) (P43245 whole entry): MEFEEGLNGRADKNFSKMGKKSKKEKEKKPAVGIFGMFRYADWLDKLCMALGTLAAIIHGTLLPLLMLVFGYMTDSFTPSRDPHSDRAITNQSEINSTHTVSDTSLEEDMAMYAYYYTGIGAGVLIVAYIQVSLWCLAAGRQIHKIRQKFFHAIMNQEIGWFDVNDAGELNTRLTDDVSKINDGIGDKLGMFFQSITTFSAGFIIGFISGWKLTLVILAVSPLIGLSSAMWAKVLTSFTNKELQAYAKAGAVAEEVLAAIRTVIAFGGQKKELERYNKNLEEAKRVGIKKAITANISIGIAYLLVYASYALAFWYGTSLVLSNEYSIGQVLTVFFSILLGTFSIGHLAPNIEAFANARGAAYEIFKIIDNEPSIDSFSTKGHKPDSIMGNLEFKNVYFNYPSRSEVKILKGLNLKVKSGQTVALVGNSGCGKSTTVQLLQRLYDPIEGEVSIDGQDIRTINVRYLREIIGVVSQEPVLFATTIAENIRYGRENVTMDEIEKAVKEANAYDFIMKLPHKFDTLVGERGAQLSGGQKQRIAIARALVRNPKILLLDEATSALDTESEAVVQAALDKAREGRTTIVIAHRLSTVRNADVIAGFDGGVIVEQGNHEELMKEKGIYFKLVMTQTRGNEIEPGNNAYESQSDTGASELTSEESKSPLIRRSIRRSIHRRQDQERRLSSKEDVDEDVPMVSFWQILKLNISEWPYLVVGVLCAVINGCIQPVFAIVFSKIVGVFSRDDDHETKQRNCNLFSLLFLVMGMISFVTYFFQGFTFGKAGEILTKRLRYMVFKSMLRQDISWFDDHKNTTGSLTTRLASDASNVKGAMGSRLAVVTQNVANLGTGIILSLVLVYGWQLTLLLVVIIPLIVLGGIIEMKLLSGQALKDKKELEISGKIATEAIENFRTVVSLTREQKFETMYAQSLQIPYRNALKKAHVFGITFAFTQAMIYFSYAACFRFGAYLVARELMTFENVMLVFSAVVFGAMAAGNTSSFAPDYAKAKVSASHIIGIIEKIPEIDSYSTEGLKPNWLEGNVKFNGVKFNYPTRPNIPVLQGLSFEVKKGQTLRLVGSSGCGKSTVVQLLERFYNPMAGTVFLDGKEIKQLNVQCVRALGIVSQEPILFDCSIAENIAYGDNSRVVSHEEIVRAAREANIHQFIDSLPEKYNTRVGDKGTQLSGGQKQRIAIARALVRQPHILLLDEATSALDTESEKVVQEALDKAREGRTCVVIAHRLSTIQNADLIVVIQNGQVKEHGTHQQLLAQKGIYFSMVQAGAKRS

[8] = Oral bioavailability in rat; type: ADME, organism-based; details: in vivo
[9] = biological target: Sodium channel protein type 5 subunit alpha (Homo sapiens, UniProt Q14524); test: Inhibition of NaV 1.5 channel (unknown origin) by automated patch-clamp assay
[10] = biological target: Voltage-dependent L-type calcium channel subunit alpha-1C (Homo sapiens, UniProt Q13936); test: Inhibition of Cav1.2 (unknown origin)
[11] = Oral bioavailability in rat at 20 mg/kg; type: ADME, organism-based; details: in vivo
[12] = biological target: Metabotropic glutamate receptor 3 (Homo sapiens, UniProt Q14832); test: Negative allosteric modulation at mGluR3 receptor (unknown origin) assessed as effect on intracellular calcium flux measured after 5 min by Fluo-4AM dye based FLIPR analysis; type: functional, cell-based
Chain of Metabotropic glutamate receptor 3 (Q14832 whole entry): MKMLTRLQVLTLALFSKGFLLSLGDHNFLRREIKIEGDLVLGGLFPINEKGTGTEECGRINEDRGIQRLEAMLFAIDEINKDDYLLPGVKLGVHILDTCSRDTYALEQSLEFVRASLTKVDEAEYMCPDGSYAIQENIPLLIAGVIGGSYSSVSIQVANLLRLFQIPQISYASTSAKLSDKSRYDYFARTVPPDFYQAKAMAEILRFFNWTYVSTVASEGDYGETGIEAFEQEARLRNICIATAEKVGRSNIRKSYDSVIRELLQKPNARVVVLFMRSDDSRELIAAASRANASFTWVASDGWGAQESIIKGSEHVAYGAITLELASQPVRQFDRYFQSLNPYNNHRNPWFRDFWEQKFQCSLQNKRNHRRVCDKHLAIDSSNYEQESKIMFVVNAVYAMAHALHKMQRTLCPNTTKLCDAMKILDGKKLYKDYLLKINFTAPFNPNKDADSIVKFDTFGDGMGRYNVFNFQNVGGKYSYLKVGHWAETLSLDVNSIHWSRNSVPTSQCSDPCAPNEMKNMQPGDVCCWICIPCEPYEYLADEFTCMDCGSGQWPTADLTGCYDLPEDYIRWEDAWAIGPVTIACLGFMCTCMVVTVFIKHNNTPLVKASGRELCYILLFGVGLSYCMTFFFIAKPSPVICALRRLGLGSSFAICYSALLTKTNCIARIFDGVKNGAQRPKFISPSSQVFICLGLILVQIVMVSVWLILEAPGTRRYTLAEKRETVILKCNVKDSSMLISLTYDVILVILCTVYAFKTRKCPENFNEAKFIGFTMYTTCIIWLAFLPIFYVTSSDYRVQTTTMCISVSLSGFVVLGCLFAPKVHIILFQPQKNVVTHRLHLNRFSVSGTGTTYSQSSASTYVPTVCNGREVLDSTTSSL

Chain of Voltage-gated inwardly rectifying potassium channel KCNH2 (Q12809 whole entry): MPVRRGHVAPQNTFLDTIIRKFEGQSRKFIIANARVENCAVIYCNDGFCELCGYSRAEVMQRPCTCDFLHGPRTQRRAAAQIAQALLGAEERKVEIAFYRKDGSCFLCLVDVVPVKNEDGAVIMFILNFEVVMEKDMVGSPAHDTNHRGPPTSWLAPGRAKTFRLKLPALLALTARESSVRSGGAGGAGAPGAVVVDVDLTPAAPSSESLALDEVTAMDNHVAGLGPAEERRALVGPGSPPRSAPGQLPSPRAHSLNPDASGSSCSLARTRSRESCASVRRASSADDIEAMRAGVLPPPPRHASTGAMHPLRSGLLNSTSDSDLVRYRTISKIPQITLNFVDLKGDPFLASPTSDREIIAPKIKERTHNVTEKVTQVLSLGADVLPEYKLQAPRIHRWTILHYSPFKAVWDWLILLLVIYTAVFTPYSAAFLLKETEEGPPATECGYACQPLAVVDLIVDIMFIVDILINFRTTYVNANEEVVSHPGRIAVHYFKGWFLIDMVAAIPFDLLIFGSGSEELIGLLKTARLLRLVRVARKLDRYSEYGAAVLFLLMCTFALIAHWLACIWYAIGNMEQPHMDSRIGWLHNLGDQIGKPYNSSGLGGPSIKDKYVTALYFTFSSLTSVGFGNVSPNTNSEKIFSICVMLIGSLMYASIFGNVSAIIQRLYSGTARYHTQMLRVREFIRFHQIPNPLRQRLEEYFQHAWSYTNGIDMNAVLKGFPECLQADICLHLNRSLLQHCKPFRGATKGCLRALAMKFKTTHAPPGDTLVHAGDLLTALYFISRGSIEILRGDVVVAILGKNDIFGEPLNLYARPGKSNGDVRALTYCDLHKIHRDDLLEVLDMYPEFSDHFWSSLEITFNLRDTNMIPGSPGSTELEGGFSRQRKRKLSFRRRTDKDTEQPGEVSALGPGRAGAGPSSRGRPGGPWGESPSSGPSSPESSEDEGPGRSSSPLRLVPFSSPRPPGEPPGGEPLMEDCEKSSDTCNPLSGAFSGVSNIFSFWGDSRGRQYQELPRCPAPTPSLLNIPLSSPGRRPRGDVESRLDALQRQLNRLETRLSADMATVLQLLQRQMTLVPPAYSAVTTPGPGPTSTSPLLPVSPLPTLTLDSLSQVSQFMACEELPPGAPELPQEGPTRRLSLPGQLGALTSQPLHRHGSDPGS

Row | Structure (SMILES) | IC50 [1] [µM] | Emax at 30 µM [2] [%] | solubility ([3]; read-out: solubility) [µM] | EC50 [4] [µM] | Papp [5] [×10⁻⁶ cm/s] | other results
1 | CC1CN(Cc2ccc3c(-c4ccc(F)cc4)cc(C(N)=O)nc3c2)CCO1 (racemic) | 5.5 | 26 | 103 (≈ 39.1 µg/mL) | > 30 |  | 
2 | NC(=O)c1cc(-c2ccc(F)cc2)c2ccc(CN3CCNC(C(F)(F)F)C3)cc2n1 (racemic) | 11.2 |  | 105 (≈ 45.4 µg/mL) |  | 27 | 
3 | Cn1cc(-c2cc(C(N)=O)nc3cc(CN4CCOC(C5CC5)C4)ccc23)cn1 (racemic) | 51 |  | 175 (≈ 68.5 µg/mL) |  | 29 | IC50 [6]: 0.032 µM
4 | Cc1ncc(NCc2ccc3c(-c4ccc(F)cc4)cc(C(N)=O)nc3c2)cn1 | 6.2 | 1 | 7 (≈ 2.71 µg/mL) | > 30 | 31 | 
5 | Cn1cc(Cc2ccc3c(-c4cnn(C)c4)cc(C(N)=O)nc3c2)cn1 | > 60 |  | 105 (≈ 36.4 µg/mL) |  | 36 | 
6 | NC(=O)c1cc(N2CCOCC2)c2ccc(CN3C(=O)CCC3=O)cc2n1 | 17 |  | 157 (≈ 57.8 µg/mL) |  | 35 | 
7 | Cn1cc(-c2cc(C(N)=O)nc3cc(CN4CCNC(C(F)(F)F)C4)ccc23)cn1 (racemic) | > 20 |  | 175 (≈ 73.2 µg/mL) |  | 29 | IC50 [6]: 0.122 µM
8 | CC(C)(C(=O)N1CCOCC1)c1ccc2c(-c3ccc(F)cc3)cc(C(N)=O)nc2c1 | 20.6 |  | 143 (≈ 60.3 µg/mL) |  | 32 | 
9 | CC(C)C1CN(Cc2ccc3c(-c4cnn(C)c4)cc(C(N)=O)nc3c2)CCO1 (racemic) | 23 | 51 | 142 (≈ 55.9 µg/mL) | 29 | 34 | IC50 [6]: 0.023 µM; efflux ratio [7]: 1.3
10 | Cc1cc(NCc2ccc3c(-c4ccc(F)cc4)cc(C(N)=O)nc3c2)no1 | 3.3 | 49 | 3 (≈ 1.13 µg/mL) | > 30 | 30 | 
11 | Cc1ccn(-c2cc(C(N)=O)nc3cc(CN4C(=O)CCC4=O)ccc23)n1 | > 60 |  | 46 (≈ 16.7 µg/mL) |  | 30 | IC50 [6]: > 5 µM; efflux ratio [7]: 18
12 | CC(c1ccc2c(-c3cnn(C)c3)cc(C(N)=O)nc2c1)c1cnn(CC(F)(F)F)c1 (racemic) | 10 | 75 | 107 (≈ 45.8 µg/mL) | 19 | 29 | IC50 [6]: 0.011 µM; efflux ratio [7]: 18
13 | NC(=O)c1cc(-c2ccc(F)cc2)c2ccc(CNCC(F)(F)F)cc2n1 | 10.2 | 50 | 6 (≈ 2.26 µg/mL) | > 30 | 24 | 
14 | CN(C)C(=O)C(C)(C)c1ccc2c(-c3ccc(F)cc3)cc(C(N)=O)nc2c1 | 40 | 110 | < 2 | 3.5 | 38 | 
15 | NC(=O)c1cc(-c2ccc(F)cc2)c2ccc(CN3C(=O)CCC3=O)cc2n1 |  |  |  |  |  | solubility [3]: 4 µM (≈ 1.51 µg/mL); bioavailability [8]: 100%
16 | Cn1cc(-c2cc(C(N)=O)nc3cc(CN4C(=O)CCC4=O)ccc23)cn1 |  |  | 162 (≈ 58.9 µg/mL) |  | 30 | 
17 | NC(=O)c1cc(-c2ccc(F)cc2)c2ccc(CN3CCOC(C(F)(F)F)C3)cc2n1 (racemic) | 5.5 |  | 2 (≈ 0.867 µg/mL) |  | 24 | 
18 | CC1CCN(c2cc(C(N)=O)nc3cc(CN4C(=O)CCC4=O)ccc23)CC1 |  |  | < 2 |  |  | 

Row | Structure (SMILES) | IC50 [1] [µM] | Emax at 30 µM [2] [%] | solubility ([3]; read-out: solubility) [µM] | EC50 [4] [µM] | Papp [5] [×10⁻⁶ cm/s] | other results
19 | CCn1cc(-c2cc(C(N)=O)nc3cc(CN4C(=O)CCC4=O)ccc23)cn1 | 27 |  | 150 (≈ 56.6 µg/mL) |  | 24 | 
20 | Cc1ncc(-c2cc(C(N)=O)nc3cc(CN4C(=O)CCC4=O)ccc23)s1 | > 60 | 137 | 64 (≈ 24.3 µg/mL) | 6 |  | 
21 | Cc1cnn(-c2cc(C(N)=O)nc3cc(CN4C(=O)CCC4=O)ccc23)c1 |  | 54 | 99 (≈ 36 µg/mL) | > 30 |  | 
22 | NC(=O)c1cc(-c2ccc(F)cc2)c2ccc(C(N3CCOCC3)C(F)(F)F)cc2n1 (racemic) | 11.2 |  | < 2 |  | 28 | IC50 [6]: 0.041 µM
23 | CN1CC=C(c2cc(C(N)=O)nc3cc(CN4C(=O)CCC4=O)ccc23)CC1 |  |  | 203 (≈ 76.8 µg/mL) |  | 38 | IC50 [6]: 4.03 µM; efflux ratio [7]: 19
24 | Cn1ccc(CCc2ccc3c(-c4ccc(F)cc4)cc(C(N)=O)nc3c2)n1 | 2.9 | 97 | < 1 | 9.2 | 25 | 
25 | Cn1cc(-c2cc(C(N)=O)nc3cc(CN4CCOC(C(F)F)C4)ccc23)cn1 (racemic) |  |  | 193 (≈ 77.5 µg/mL) |  |  | IC50 [6]: 0.067 µM
26 | COC1CC=C(c2cc(C(N)=O)nc3cc(CN4C(=O)CCC4=O)ccc23)CC1 (racemic) | > 60 |  | 125 (≈ 49.2 µg/mL) |  | 32 | 
27 | NC(=O)c1cc(-c2ccc(F)cc2)c2ccc(CCc3cncnc3)cc2n1 | > 60 | 47 | < 1 | > 30 | 31 | 
28 | Cn1cc(Cc2ccc3c(-c4ccc(F)cc4)cc(C(N)=O)nc3c2)cn1 | 3.5 | 21 | 4 (≈ 1.44 µg/mL) | > 30 | 31 | 
29 | Cn1cc(-c2cc(C(N)=O)nc3cc(CN4CCO[C@@H](C(F)(F)F)C4)ccc23)cn1 | > 60 |  | 142 (≈ 59.6 µg/mL) |  | 29 | IC50 [9]: > 30 µM; IC50 [10]: 22 µM; bioavailability [11]: 100%; IC50 [12]: 7.8 µM
30 | Cc1ncc(CCc2ccc3c(-c4cnn(C)c4)cc(C(N)=O)nc3c2)cn1 | > 60 |  | 141 (≈ 52.5 µg/mL) |  | 30 | 
31 | NC(=O)c1cc(-c2ccc(F)cc2)c2ccc(CN3CCOC3=O)cc2n1 | 14 | 95 | 127 (≈ 46.4 µg/mL) | 9.7 | 36 | 
32 | CC1CN(Cc2ccc3c(-c4cnn(C)c4)cc(C(N)=O)nc3c2)CCO1 (racemic) | > 60 | 1 | 175 (≈ 64 µg/mL) | > 30 |  | 
33 | Cc1cnn(Cc2ccc3c(-c4ccc(F)cc4)cc(C(N)=O)nc3c2)c1 | 1.9 | 53 | < 2 | 16.7 | 27 | 
34 | CC1CC=C(c2cc(C(N)=O)nc3cc(CN4C(=O)CCC4=O)ccc23)CC1 (racemic) | 27 | 115 | < 1 | 0.6 | 33 | 
35 | Cn1cc(-c2cc(C(N)=O)nc3cc(CN4CCOC(C(F)(F)F)C4)ccc23)cn1 (racemic) | 19 |  | 132 (≈ 55.4 µg/mL) |  | 30 | 
